According to patent US8933230B2, “Phosphorus-containing group-substituted quinoline, its preparation process, medical composition containing the compounds and application” (priority 2011, dated 2015):

Assays:
Experiment in all cases: KinomeScan kinase panel
Assay type in all cases: binding
[1] = target: T1, AAK1 (Homo sapiens, UniProt Q2M2I8)
T1 construct: purchased DiscoveRx Corporation (KinomeScan)
Method: (§1) In this example, the compound prepared in Example 10, N1-[4-[[7-[[1-(diethoxyphosphorylmethyl)-4-piperidinyl]methoxyl]-6-methoxyl-4-quinolyl]oxyl]-3-fluorophenyl]-N1′-(4-fluorophenyl)cyclopropane-1,1-dicarboxamide is tested for the inhibitory effect in the 442-kinase panel of KinomeScan™ (www.kinomescan.com) from DiscoveRx Corporation (4215 Sorrento Valley Blvd, San Diego, Calif. 92121) at 1000 nM of the compound concentration, the results are shown in the following Table 5:
(§2) For the detailed information of the screening technique, see Fabian, M. A. et al, Nat., Biotechnol. 2005, 23, 329 and Karaman, M. W. et al, Nat., Biotechnol. 2008, 26, 127. It can be seen from the following representative results that, the compound according to the present invention has significant inhibitory effect on kinases including c-Met, KDR or VEGFR2, RET, PDGFR-β, c-KIT, Flt3, MEK5, DDR1, LOK, CSF1R, EPHA7, EPHA8, EPHB6, MKNK2, BLK, HIPK4, HCK, Flt4 and the mutants thereof

[2] = target: T2, ACVR2A (Homo sapiens, UniProt P27037)
T2 construct: purchased DiscoveRx Corporation (KinomeScan)
Method: as §1, §2

[3] = target: T3, AKT2 (Homo sapiens, UniProt P31751)
T3 construct: purchased DiscoveRx Corporation (KinomeScan)
Method: as §1, §2

[4] = target: T4, ALK (Homo sapiens, UniProt Q9UM73)
T4 construct: purchased DiscoveRx Corporation (KinomeScan)
Method: as §1, §2

[5] = target: T5, ASK1 (Homo sapiens, UniProt Q99683)
T5 construct: purchased DiscoveRx Corporation (KinomeScan)
Method: as §1, §2

[6] = target: T6, BLK (Homo sapiens, UniProt P51451)
T6 construct: purchased DiscoveRx Corporation (KinomeScan)
Method: as §1, §2

[7] = target: T7, BRAF (Homo sapiens, UniProt P15056)
T7 construct: purchased DiscoveRx Corporation (KinomeScan)
Method: as §1, §2

[8] = target: T8, CLK3 (Homo sapiens, UniProt P49761)
T8 construct: purchased DiscoveRx Corporation (KinomeScan)
Method: as §1, §2

[9] = target: T9, CLK4 (Homo sapiens, UniProt Q9HAZ1)
T9 construct: purchased DiscoveRx Corporation (KinomeScan)
T9 sequence (Q9HAZ1 whole entry): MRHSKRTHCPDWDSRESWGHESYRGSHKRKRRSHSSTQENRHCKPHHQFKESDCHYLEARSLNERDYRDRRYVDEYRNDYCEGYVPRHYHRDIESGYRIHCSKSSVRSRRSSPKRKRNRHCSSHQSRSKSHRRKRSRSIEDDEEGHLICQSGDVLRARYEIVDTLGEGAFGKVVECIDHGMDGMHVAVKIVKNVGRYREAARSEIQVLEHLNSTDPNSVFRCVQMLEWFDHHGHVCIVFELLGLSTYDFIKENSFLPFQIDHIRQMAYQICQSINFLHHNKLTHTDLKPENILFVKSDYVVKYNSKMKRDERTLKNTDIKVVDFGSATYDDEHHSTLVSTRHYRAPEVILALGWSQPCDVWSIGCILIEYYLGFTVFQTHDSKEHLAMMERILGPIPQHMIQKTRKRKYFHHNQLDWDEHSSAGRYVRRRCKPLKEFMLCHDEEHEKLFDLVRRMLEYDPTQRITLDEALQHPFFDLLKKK
Method: as §1, §2

[10] = target: T10, DCAMKL3 (Homo sapiens, UniProt Q9C098)
T10 construct: purchased DiscoveRx Corporation (KinomeScan)
Method: as §1, §2

[11] = target: T11, DRAK1 (Homo sapiens, UniProt Q9UEE5)
T11 construct: purchased DiscoveRx Corporation (KinomeScan)
Method: as §1, §2

[12] = target: T12, EPHA7 (Homo sapiens, UniProt Q15375)
T12 construct: purchased DiscoveRx Corporation (KinomeScan)
Method: as §1, §2

[13] = target: T13, ERBB4 (Homo sapiens, UniProt Q15303)
T13 construct: purchased DiscoveRx Corporation (KinomeScan)
Method: as §1, §2

[14] = target: T14, ERK3 (Homo sapiens, UniProt Q16659)
T14 construct: purchased DiscoveRx Corporation (KinomeScan)
Method: as §1, §2

[15] = target: T15, KIT(V559D, V654A) (Homo sapiens, UniProt P10721, V559D/V654A)
T15 construct: purchased DiscoveRx Corporation (KinomeScan)
Method: as §1, §2

[16] = target: T16, LTK (Homo sapiens, UniProt P29376)
T16 construct: purchased DiscoveRx Corporation (KinomeScan)
Method: as §1, §2

[17] = target: T17, LYN (Homo sapiens, UniProt P07948)
T17 construct: purchased DiscoveRx Corporation (KinomeScan)
T17 sequence (P07948 whole entry): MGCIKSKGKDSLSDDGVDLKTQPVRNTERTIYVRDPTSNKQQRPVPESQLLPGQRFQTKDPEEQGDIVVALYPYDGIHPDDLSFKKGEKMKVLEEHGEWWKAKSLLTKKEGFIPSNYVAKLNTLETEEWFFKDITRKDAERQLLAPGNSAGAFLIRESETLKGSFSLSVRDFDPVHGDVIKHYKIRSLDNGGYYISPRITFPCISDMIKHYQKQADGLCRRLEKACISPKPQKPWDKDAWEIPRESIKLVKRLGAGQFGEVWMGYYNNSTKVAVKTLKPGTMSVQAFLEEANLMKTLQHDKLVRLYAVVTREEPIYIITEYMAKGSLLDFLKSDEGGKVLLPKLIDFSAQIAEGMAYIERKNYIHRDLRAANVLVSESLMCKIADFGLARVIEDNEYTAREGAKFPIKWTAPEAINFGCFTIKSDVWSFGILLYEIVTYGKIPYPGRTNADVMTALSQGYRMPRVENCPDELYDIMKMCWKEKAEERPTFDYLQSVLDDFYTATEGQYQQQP
Method: as §1, §2

[18] = target: T18, MAP4K2 (Homo sapiens, UniProt Q12851)
T18 construct: purchased DiscoveRx Corporation (KinomeScan)
T18 sequence (Q12851 whole entry): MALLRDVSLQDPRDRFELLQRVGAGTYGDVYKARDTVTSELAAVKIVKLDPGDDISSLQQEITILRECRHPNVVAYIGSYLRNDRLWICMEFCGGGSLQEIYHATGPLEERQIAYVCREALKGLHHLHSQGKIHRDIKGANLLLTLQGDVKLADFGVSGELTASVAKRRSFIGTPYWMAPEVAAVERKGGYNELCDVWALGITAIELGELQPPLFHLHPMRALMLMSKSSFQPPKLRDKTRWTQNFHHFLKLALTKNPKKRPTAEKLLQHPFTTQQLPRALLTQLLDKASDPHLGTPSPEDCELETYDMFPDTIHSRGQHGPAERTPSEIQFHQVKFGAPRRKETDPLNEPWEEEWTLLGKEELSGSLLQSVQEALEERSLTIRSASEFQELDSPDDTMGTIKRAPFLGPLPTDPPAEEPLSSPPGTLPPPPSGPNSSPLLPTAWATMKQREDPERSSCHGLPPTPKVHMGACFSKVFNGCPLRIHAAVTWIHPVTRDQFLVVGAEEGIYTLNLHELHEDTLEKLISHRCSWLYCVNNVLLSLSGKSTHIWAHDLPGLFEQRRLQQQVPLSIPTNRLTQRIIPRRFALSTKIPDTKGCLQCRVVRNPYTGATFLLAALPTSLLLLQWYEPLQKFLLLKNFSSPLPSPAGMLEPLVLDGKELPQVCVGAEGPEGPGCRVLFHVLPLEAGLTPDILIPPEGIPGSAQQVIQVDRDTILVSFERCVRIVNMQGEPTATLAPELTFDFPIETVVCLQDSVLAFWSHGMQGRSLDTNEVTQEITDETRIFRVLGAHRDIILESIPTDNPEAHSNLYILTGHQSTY
Method: as §1, §2

[19] = target: T19, MEK5 (Homo sapiens, UniProt Q13163)
T19 construct: purchased DiscoveRx Corporation (KinomeScan)
Method: as §1, §2

[20] = target: T20, MLCK (Homo sapiens, UniProt Q32MK0)
T20 construct: purchased DiscoveRx Corporation (KinomeScan)
Method: as §1, §2

[21] = target: T21, MLK2 (Homo sapiens, UniProt Q02779)
T21 construct: purchased DiscoveRx Corporation (KinomeScan)
T21 sequence (Q02779 whole entry): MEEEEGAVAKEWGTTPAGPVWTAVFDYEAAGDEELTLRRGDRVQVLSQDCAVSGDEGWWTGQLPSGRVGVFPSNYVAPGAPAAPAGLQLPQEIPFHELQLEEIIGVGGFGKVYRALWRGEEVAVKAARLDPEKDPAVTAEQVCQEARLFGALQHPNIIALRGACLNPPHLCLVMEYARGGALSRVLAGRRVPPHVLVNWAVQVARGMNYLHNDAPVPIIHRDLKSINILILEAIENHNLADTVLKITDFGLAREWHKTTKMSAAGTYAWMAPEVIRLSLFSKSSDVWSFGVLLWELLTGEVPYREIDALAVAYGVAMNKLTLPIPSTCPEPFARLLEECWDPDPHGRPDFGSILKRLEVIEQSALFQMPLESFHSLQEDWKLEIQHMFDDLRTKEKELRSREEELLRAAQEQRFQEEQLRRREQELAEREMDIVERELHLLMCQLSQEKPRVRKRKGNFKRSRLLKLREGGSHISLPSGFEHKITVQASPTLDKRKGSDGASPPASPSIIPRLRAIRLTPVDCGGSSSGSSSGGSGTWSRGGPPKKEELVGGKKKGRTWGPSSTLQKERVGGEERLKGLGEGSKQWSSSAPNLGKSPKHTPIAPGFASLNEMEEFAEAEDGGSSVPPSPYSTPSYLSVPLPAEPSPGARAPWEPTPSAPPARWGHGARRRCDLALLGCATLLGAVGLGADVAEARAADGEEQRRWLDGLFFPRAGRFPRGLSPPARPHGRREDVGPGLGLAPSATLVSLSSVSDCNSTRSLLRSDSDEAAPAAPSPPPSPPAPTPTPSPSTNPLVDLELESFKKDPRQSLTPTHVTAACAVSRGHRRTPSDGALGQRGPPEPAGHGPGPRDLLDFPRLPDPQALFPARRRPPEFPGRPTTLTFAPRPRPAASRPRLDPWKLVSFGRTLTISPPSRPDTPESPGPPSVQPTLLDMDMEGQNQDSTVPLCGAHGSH
Method: as §1, §2

[22] = target: T22, MYLK2 (Homo sapiens, UniProt Q9H1R3)
T22 construct: purchased DiscoveRx Corporation (KinomeScan)
Method: as §1, §2

[23] = target: T23, MYO3B (Homo sapiens, UniProt Q8WXR4)
T23 construct: purchased DiscoveRx Corporation (KinomeScan)
Method: as §1, §2

[24] = target: T24, P38-alpha (Homo sapiens, UniProt Q16539)
T24 construct: purchased DiscoveRx Corporation (KinomeScan panel)
Method: as §1, §2

[25] = target: T25, P38-beta (Homo sapiens, UniProt Q15759)
T25 construct: purchased DiscoveRx Corporation (KinomeScan panel)
Method: as §1, §2

[26] = target: T26, PIK3C2G (Homo sapiens, UniProt O75747)
T26 construct: purchased DiscoveRx Corporation (KinomeScan)
T26 sequence (O75747 whole entry): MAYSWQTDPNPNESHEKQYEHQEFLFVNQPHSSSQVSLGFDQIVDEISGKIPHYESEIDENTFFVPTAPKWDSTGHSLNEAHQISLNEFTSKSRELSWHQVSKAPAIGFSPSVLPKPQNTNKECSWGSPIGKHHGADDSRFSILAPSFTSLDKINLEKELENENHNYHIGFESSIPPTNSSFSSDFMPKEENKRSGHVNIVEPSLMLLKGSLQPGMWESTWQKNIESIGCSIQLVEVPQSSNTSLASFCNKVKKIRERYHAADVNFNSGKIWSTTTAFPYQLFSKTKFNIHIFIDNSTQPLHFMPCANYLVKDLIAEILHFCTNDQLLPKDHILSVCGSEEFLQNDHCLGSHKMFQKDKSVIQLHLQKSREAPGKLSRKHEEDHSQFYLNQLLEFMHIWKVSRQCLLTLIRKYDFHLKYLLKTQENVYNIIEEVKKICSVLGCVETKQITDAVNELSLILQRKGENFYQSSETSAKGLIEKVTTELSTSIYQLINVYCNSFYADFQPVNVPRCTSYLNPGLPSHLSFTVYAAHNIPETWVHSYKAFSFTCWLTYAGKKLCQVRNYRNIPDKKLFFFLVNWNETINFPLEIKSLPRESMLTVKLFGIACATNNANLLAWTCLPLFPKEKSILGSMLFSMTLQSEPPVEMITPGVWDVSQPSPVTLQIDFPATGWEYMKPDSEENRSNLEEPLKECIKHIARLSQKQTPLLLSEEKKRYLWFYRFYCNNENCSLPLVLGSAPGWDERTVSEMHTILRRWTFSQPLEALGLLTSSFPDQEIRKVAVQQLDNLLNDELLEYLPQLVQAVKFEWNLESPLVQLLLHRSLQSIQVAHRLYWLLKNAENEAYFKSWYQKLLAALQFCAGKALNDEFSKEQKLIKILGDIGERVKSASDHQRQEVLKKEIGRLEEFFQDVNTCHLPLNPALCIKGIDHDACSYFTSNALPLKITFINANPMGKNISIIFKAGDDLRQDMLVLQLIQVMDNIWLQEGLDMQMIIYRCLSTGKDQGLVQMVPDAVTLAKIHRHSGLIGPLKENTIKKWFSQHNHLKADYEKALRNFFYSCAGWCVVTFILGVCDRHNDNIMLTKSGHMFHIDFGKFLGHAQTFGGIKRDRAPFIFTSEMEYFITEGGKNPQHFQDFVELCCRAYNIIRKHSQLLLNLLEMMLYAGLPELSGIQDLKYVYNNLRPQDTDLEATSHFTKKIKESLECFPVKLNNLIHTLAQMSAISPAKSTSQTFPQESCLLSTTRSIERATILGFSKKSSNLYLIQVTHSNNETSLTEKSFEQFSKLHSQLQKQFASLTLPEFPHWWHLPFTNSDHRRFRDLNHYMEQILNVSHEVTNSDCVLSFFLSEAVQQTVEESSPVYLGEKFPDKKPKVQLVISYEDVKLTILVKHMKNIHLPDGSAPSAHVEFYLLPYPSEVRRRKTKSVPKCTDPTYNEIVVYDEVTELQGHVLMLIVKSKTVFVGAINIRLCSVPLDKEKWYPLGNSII
Method: as §1, §2

[27] = target: T27, PIK3CA (H1047Y) (Homo sapiens, UniProt P42336, H1047Y)
T27 construct: purchased DiscoveRx Corporation (KinomeScan)
Method: as §1, §2

[28] = target: T28, PLK1 (Homo sapiens, UniProt P53350)
T28 construct: purchased DiscoveRx Corporation (KinomeScan)
T28 sequence (P53350 whole entry): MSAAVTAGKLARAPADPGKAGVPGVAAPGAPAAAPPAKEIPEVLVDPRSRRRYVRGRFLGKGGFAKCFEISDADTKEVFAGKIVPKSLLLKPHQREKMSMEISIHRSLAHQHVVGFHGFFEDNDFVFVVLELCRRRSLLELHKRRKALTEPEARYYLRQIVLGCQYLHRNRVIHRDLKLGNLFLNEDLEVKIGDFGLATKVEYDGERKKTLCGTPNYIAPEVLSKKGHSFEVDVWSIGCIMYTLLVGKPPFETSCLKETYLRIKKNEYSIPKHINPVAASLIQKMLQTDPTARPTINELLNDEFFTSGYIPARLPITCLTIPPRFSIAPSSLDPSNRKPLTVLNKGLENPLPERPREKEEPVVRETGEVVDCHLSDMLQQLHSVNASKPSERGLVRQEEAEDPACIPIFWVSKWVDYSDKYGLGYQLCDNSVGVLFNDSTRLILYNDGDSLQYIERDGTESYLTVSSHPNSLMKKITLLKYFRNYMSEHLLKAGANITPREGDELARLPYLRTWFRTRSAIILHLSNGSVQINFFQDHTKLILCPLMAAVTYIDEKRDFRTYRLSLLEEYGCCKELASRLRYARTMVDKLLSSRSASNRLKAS
Method: as §1, §2

[29] = target: T29, RIOK2 (Homo sapiens, UniProt Q9BVS4)
T29 construct: purchased DiscoveRx Corporation
Method: as §1, §2

[30] = target: T30, RIPK1 (Homo sapiens, UniProt Q13546)
T30 construct: purchased DiscoveRx Corporation
Method: as §1, §2

[31] = target: T31, ROCK1 (Homo sapiens, UniProt Q13464)
T31 construct: purchased DiscoveRx Corporation
Method: as §1, §2

[32] = target: T32, SBK1 (Homo sapiens, UniProt Q52WX2)
T32 construct: purchased DiscoveRx Corporation (KinomeScan)
Method: as §1, §2

[33] = target: T33, SRMS (Homo sapiens, UniProt Q9H3Y6)
T33 construct: purchased DiscoveRx Corporation (KinomeScan)
Method: as §1, §2

[34] = target: T34, TAOK3 (Homo sapiens, UniProt Q9H2K8)
T34 construct: purchased DiscoveRx Corporation (KinomeScan)
Method: as §1, §2

[35] = target: T35, TIE2 (Homo sapiens, UniProt Q02763)
T35 construct: purchased DiscoveRx Corporation (KinomeScan)
Method: as §1, §2

[36] = target: T36, ZAK (Homo sapiens, UniProt Q9NYL2)
T36 construct: purchased DiscoveRx Corporation (KinomeScan service)
Method: as §1, §2

With `CCOP(=O)(CN1CCC(COc2cc3nccc(Oc4ccc(NC(=O)C5(C(=O)Nc6ccc(F)cc6)CC5)cc4F)c3cc2OC)CC1)OCC` [Example 10, N1-[4-[[7-[[1-(diethoxyphosphorylmethyl)-4-piperidinyl]methoxyl]-6-methoxyl-4-quinolyl]oxyl]-3-fluorophenyl]-N1′-(4-fluorophenyl)cyclopropane-1,1-dicarboxamide] the “% Ctrl@1000 nM” value [1] was 91 % Ctrl, the “% Ctrl@1000 nM” value [2] was 100 % Ctrl and the “% Ctrl@1000 nM” value [3] was 100 % Ctrl. For the same molecule, the “% Ctrl@1000 nM” value [4] was 15 % Ctrl, the “% Ctrl@1000 nM” value [5] was 100 % Ctrl and the “% Ctrl@1000 nM” value [6] was 0.5 % Ctrl. The “% Ctrl@1000 nM” value [7] was 100 % Ctrl, the “% Ctrl@1000 nM” value [8] was 100 % Ctrl and the “% Ctrl@1000 nM” value [9] was 46 % Ctrl. For the same molecule, the “% Ctrl@1000 nM” value [10] was 100 % Ctrl, the “% Ctrl@1000 nM” value [11] was 100 % Ctrl and the “% Ctrl@1000 nM” value [12] was 0.8 % Ctrl. The “% Ctrl@1000 nM” value [13] was 100 % Ctrl, the “% Ctrl@1000 nM” value [14] was 100 % Ctrl and the “% Ctrl@1000 nM” value [15] was 4.1 % Ctrl. The “% Ctrl@1000 nM” value [16] was 26 % Ctrl, the “% Ctrl@1000 nM” value [17] was 18 % Ctrl and the “% Ctrl@1000 nM” value [18] was 100 % Ctrl. For the same molecule, the “% Ctrl@1000 nM” value [19] was 0.25 % Ctrl, the “% Ctrl@1000 nM” value [20] was 100 % Ctrl and the “% Ctrl@1000 nM” value [21] was 78 % Ctrl. For the same molecule, the “% Ctrl@1000 nM” value [22] was 100 % Ctrl, the “% Ctrl@1000 nM” value [23] was 100 % Ctrl and the “% Ctrl@1000 nM” value [24] was 53 % Ctrl. For the same molecule, the “% Ctrl@1000 nM” value [25] was 87 % Ctrl, the “% Ctrl@1000 nM” value [26] was 98 % Ctrl and the “% Ctrl@1000 nM” value [27] was 63 % Ctrl. For the same molecule, the “% Ctrl@1000 nM” value [28] was 100 % Ctrl, the “% Ctrl@1000 nM” value [29] was 100 % Ctrl and the “% Ctrl@1000 nM” value [30] was 99 % Ctrl. For the same molecule, the “% Ctrl@1000 nM” value [31] was 100 % Ctrl, the “% Ctrl@1000 nM” value [32] was 100 % Ctrl and the “% Ctrl@1000 nM” value [33] was 8.9 % Ctrl. For the same molecule, the “% Ctrl@1000 nM” value [34] was 100 % Ctrl, the “% Ctrl@1000 nM” value [35] was 2.4 % Ctrl and the “% Ctrl@1000 nM” value [36] was 36 % Ctrl.
